What is called IC50 is the concentration at which inhibition is half-maximal. By Ki is commonly meant a dissociation constant, usually derived from enzyme kinetics or from competition with a known ligand. Higher therefore signals lower affinity.

Read-outs that look alike come from different tables or passages of the source.

Test [1] has as its target T1, mouse μ opioid receptor (Mus musculus, UniProt P42866). Briefly: cell-based. The note with it: for Emax: HEK293, read-out: Max Inhibition.
Test [2] deals with T1, mouse μ opioid receptor. Briefly: biochemical. The format is binding.

T1 sequence (P42866 whole entry): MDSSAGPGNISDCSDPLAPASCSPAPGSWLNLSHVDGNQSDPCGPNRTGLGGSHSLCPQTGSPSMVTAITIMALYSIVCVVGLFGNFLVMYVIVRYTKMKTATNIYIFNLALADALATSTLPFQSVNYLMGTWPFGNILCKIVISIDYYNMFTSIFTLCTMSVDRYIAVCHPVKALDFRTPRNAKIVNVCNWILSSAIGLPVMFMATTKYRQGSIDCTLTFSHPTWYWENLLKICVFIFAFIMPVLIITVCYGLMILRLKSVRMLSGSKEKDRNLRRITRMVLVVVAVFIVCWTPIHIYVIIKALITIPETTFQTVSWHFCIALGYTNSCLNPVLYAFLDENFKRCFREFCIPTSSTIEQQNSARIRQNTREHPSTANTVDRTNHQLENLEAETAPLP

As for `Oc1ccc2c(c1)[C@@]13CCCC[C@@]1(O)[C@@H](C2)N(CC1CCC1)CC3` [Butorphanol], at mouse μ opioid receptor [1], the IC50 came to 3 ± 2 nM and the Emax was 58 ± 5%.
As for `C[C@H]1[C@H]2Cc3ccc(O)cc3[C@]1(C)CCN2CC1CC1` [Cyclazocine], on mouse μ opioid receptor [1], it took 21 ± 8 nM to reach half-maximal inhibition (IC50) and the Emax came out at 37 ± 2%. Further, affinity on mouse μ opioid receptor [2] was put at a Ki of 0.22 ± 0.02 nM.
Regarding `C[C@@H](NC(=O)[C@@H](N)Cc1ccc(O)cc1)C(=O)NCC(=O)N(C)[C@@H](Cc1ccccc1)C(=O)NCCO` [DAMGO], on mouse μ opioid receptor [1], the “Max Inhibition” value was determined as 58 ± 5%.
With `C[C@@]12CCCCC[C@@H](Cc3ccc(O)cc31)[C@@H]2N` [Dezocine], at mouse μ opioid receptor [1], the IC50 is 1.3 ± 0.6 nM and the Emax stood at 43 ± 2%.
As for `C[C@H]1[C@H]2Cc3ccc(O)cc3[C@]1(C)CCN2C` [Metazocine], on mouse μ opioid receptor [1], the IC50 amounted to 2 ± 0.1 nM and the Emax is 41 ± 4%.
On the same counts, the results for `C=CCN1CC[C@]23c4c5ccc(O)c4O[C@H]2[C@@H](O)C=C[C@H]3[C@H]1C5` [Nalorphine] are 2.7 ± 1.4 nM and 50 ± 2%.
For the molecule `C=C1C[C@H](C)[C@H]2[C@H]3Cc4ccc(O)cc4[C@@]2(CCN3CC2CCC2)C1` [Xorphanol], the “Max Inhibition” value at mouse μ opioid receptor [1] is on record as 29 ± 2 ⊕⊕^## %. In addition, the IC50 on mouse μ opioid receptor [1] (read-out: IC50 ± SEM) turned out to be 3.4 ± 1.7 nM.

The record behind these values is publication PMC140036 (BMC Pharmacology, 2003).
